Experimental data: PMC9102847, “7-Aminoalkoxy-Quinazolines from Epigenetic Focused Libraries Are Potent and Selective Inhibitors of DNA Methyltransferase 1” (Molecules, 2022)
Where two headings read alike, the source gives them in different places. Values belong to the compound of their own block, whether it stands above or below them.

Assays:
DNMT3B [1] = molecular target: T1, DNMT3B (Homo sapiens, UniProt Q9UBC3); assay: HotSpot radioisotope methyltransferase inhibition assay, DNMT3B; assay type: biochemical; conditions: for inhibition of DNMT3B (in words): enzymatic inhibition assays
T1 construct: purchased Reaction Biology Corporation

DNMT3B [2] = molecular target: T1, DNMT3B; set-up: method as in PMID 34790902; conditions: Pappalardi et al.; cited from earlier work
DNMT3A [3] = molecular target: T2, DNMT3A (Homo sapiens, UniProt Q9Y6K1); assay: HotSpot radioisotope methyltransferase inhibition assay, DNMT3A; assay type: biochemical
T2 construct: purchased Reaction Biology Corporation
T2 sequence (Q9Y6K1 whole entry, looked up): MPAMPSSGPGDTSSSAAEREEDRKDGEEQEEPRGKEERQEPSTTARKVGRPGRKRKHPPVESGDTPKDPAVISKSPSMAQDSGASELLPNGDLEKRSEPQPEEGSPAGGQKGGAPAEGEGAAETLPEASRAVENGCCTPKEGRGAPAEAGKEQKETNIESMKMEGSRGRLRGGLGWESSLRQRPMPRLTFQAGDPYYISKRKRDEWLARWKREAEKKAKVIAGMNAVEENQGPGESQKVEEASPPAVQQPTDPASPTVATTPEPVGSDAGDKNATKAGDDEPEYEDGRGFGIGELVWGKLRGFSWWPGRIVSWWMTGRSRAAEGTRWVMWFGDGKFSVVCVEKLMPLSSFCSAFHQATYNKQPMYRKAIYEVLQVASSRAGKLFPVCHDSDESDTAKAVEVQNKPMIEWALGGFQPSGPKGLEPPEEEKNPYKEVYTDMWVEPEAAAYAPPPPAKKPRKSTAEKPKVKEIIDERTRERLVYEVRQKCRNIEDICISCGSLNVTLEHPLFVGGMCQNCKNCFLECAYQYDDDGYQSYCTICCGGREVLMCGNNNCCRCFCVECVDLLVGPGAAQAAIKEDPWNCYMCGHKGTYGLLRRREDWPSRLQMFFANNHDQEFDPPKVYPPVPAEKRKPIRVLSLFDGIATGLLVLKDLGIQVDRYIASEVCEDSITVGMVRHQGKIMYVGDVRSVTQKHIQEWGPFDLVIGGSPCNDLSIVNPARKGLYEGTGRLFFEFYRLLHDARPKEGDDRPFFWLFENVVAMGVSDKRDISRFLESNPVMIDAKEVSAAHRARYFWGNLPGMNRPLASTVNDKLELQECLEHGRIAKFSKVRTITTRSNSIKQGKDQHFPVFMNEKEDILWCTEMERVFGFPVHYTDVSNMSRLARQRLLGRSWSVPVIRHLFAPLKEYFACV
Experimental: The inhibition of the enzymatic activity of DNMT1, DNMT3A, and DNMT3B was tested using the HotSpotSM platform for methyltransferase assays available at Reaction Biology Corporation. HotSpotSM is a low volume radioisotope-based assay that uses tritium-labeled AdoMet (3H-SAM) as a methyl donor. The three test compounds diluted in dimethyl sulfoxide were added using acoustic technology (Echo550, Labcyte, San Jose, CA, USA) into an enzyme/substrate mixture in the nano-liter range. The corresponding reactions were commenced by adding 3H-SAM and incubated at 30 °C. Total final methylations on the substrate (Poly dI-dC in DNMT1, 3A, and 3B assays) were identified by a filter binding method implemented in Reaction Biology. Data analysis was done with Graphed Prism software (La Jolla, CA, USA) for curve fits. The enzymatic inhibition assays were carried out at 1 μM of SAM. In all assays, SAH was used as a standard positive control. The three compounds were tested first with DNMT1 at one 100 μM concentration in duplicate. […] The research group has recently contracted the screening services of Reaction Biology Corporation to identify a novel DNMTi.

G9a [4] = conditions: Figure 1, activity as available in the literature; cited from earlier work
DNMT3B [5] = molecular target: T1, DNMT3B; set-up: method as in PMID 29953809; conditions: Figure 1, activity as available in the literature; cited from earlier work
DNMT3A [6] = molecular target: T2, DNMT3A; set-up: method as in PMID 34790902; conditions: Pappalardi et al.; cited from earlier work
DNMT3B/3L = system: DNMT3B/3L; set-up: method as in PMID 29953809; conditions: Figure 1, activity as available in the literature; cited from earlier work
DNMT3A/3L = system: DNMT3A/3L; set-up: method as in PMID 29953809; conditions: Figure 1, activity as available in the literature; cited from earlier work
DNMT1 [7] = molecular target: T3, DNMT1 (Homo sapiens, UniProt P26358); set-up: method as in PMID 29953809; conditions: Figure 1, activity as available in the literature; cited from earlier work
T3 construct: purchased Reaction Biology Corporation
T3 sequence (P26358 whole entry): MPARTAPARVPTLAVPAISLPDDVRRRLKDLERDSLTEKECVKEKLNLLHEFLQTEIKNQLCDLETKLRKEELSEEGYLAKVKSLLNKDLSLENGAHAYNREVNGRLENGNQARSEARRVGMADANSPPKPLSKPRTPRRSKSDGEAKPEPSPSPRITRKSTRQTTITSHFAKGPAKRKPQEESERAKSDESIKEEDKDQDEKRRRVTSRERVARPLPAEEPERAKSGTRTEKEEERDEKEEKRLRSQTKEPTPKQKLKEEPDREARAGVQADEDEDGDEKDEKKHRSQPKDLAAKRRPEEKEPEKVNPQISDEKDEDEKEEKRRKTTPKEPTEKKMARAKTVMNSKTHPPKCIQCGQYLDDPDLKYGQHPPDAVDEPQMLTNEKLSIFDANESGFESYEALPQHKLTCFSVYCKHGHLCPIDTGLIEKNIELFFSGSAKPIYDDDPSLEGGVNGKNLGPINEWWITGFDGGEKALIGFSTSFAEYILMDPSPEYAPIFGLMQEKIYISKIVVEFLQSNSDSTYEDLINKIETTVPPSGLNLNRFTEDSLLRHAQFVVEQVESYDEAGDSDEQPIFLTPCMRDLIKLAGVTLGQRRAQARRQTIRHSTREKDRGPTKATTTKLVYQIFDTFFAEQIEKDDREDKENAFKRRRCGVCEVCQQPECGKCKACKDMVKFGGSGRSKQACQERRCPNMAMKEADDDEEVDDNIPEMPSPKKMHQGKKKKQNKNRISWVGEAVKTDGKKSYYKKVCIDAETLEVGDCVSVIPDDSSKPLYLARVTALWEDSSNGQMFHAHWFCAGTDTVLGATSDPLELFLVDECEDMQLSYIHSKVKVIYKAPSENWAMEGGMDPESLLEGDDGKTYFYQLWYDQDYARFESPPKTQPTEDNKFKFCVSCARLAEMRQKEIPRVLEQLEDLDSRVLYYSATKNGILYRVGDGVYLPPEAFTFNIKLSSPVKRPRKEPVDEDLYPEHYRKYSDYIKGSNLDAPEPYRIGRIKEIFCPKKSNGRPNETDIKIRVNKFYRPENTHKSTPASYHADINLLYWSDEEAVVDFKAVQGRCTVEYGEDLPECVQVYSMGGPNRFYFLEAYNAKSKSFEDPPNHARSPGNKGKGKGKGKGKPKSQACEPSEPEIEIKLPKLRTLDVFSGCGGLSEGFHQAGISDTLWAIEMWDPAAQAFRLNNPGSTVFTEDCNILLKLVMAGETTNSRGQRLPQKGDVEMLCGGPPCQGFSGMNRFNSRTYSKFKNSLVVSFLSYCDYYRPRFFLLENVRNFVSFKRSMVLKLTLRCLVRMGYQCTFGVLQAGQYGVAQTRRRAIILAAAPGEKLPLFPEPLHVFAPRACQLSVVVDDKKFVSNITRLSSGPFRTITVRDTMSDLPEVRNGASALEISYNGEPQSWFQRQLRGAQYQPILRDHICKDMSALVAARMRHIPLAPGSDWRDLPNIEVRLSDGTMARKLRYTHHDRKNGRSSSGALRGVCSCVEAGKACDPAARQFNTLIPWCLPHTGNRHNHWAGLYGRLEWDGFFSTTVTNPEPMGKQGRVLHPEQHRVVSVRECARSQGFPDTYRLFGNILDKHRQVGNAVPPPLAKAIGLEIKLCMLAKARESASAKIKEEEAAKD

[8] = system: human acute myeloid leukemia xenograft; set-up: method as in PMID 29953809; conditions: human acute myeloid leukemia xenograft in a mouse model; cited from earlier work
DNMT1 [9] = molecular target: T3, DNMT1; assay: HotSpot radioisotope methyltransferase inhibition assay, DNMT1; assay type: biochemical; conditions: for relative enzymatic activity of DNMT1 as percentages: 100 μM compound, mean of two measurements ± standard deviation; for IC50: 10-concentration IC50, 1 μM SAM, mean of two measurements; for DNMT1: % inhibition / inhibition at 100 µM: single concentration 100 µM, duplicate, 1 μM SAM
G9a [10] = system: G9a; set-up: method as in PMID 21780790; conditions: enzymatic, in vitro; cited from earlier work
[11] = system: human breast adenocarcinoma (MDA-MB-231) cells; set-up: method as in PMID 21780790; conditions: read-out: cell toxicity EC50; cited from earlier work
[12] = system: H3K9me2 levels in human breast adenocarcinoma (MDA-MB-231) cells; set-up: method as in PMID 21780790; conditions: read-out: potency in reducing H3K9me2 levels; cited from earlier work

IC50 (DNMT3B [1]): 0.03 µM | IC50 (DNMT3A [3]): 0.1 µM
SMILES: Nc1ncnc2c1ncn2[C@@H]1O[C@H](CSCC[C@H](N)C(=O)O)[C@@H](O)[C@H]1O [SAH, S-adenosyl-L-homocysteine]
IC50 (DNMT3B [2]): 0.09 µM

SMILES: Nc1ncn([C@@H]2O[C@H](CO)[C@@H](O)[C@H]2O)c(=O)n1 [compound 1, 5-azacitidine]
IC50 (G9a [4]): > 10 µM

SMILES: Nc1ncn([C@H]2C[C@H](O)[C@@H](CO)O2)c(=O)n1 [compound 2, 5-aza-2′-deoxycytidine]
IC50 (G9a [4]): > 10 µM

SMILES: Cc1cc(Nc2ccc(NC(=O)c3ccc(Nc4ccnc5ccccc45)cc3)cc2)nc(N)n1 [compound 3]
IC50 (G9a [4]): > 10 µM | IC50 (DNMT3B [2]): 7 µM

SMILES: COc1ccc(Cl)cc1C(=O)NCCc1ccc(S(=O)(=O)NC(=O)NC2CCCCC2)cc1 [compound 4, Glyburide]
IC50 (DNMT3B [5]): > 100 µM

SMILES: CCc1c(C#N)c(SC(C(N)=O)c2ccccc2)nc(N2CCC(N)CC2)c1C#N (stereo not drawn) [compound 5]
inhibition of DNMT3A (in words) (DNMT3A [6]): did not inhibit | IC50 (DNMT3B/3L): > 100 µM | inhibition of DNMT3B (in words) (DNMT3B [2]): did not inhibit | IC50 (DNMT3A/3L): > 100 µM

SMILES: C[C@@H]1O[C@@H](CC(=O)O)CC2=C1C(=O)c1c(O)cccc1C2=O [compound 6, nanaomycin A]
IC50 (DNMT1 [7]): > 10 µM

SMILES: COc1cc2c(NC3CCN(C(C)C)CC3)cc(C3CCCCC3)nc2cc1OCCCN1CCCC1 [compound 7]
IC50 (G9a [4]): 0.0007 µM

SMILES: COc1cc2c(NC3CCN(C)CC3)cc(-c3ccc(C)o3)nc2cc1OCCCN1CCCC1 [compound 8]
tumor growth inhibition [8]: 70%

SMILES: COc1cc2nc(N3CCCN(C)CC3)nc(NC3CCN(Cc4ccccc4)CC3)c2cc1OC [compound 9]
IC50 (DNMT1 [7]): > 10 µM

SMILES: COc1cc2c(NC3CCN(C(C)C)CC3)nc(N3CCC(F)(F)CC3)nc2cc1OCCCN1CCCC1 [compound 11]
IC50 (DNMT1 [7]): > 50 µM

relative enzymatic activity of DNMT1 as percentages (DNMT1 [9]): 0.3 ± 0.10% | IC50 (DNMT1 [9]): 30 nM | DNMT1: % inhibition (DNMT1 [9]): 99.7% | inhibition at 100 µM (DNMT1 [9]): > 99% | inhibition of DNMT3B (in words) (DNMT3B [1]): none of them inhibited | IC50 (DNMT3B [1]; read-out: DNMT3B IC50): > 100 µM | IC50 (DNMT3A [3]): 4.87 µM
SMILES: COc1cc2c(NC3CCN(C4CCCCC4)CC3)nc(N3CCCN(C(C)C)CC3)nc2cc1OCCCN1CCCCC1 [compound 12]
IC50 (G9a [10]): 6 nM | EC50 [11]: 3.3 µM | IC50 [12]: 26 nM

relative enzymatic activity of DNMT1 as percentages (DNMT1 [9]): 0.7 ± 0.02% | IC50 (DNMT1 [9]): 81 nM | DNMT1: % inhibition (DNMT1 [9]): 99.3% | inhibition at 100 µM (DNMT1 [9]): > 99% | inhibition of DNMT3B (in words) (DNMT3B [1]): none of them inhibited | IC50 (DNMT3B [1]; read-out: DNMT3B IC50): > 100 µM | IC50 (DNMT3A [3]): 14.7 µM
SMILES: COc1cc2c(NC3CCN(CC4CCCCC4)CC3)nc(N3CCCN(C(C)C)CC3)nc2cc1OCCCN1CCCCC1 [compound 13]
IC50 (G9a [10]): 4 nM | EC50 [11]: 2.8 µM | IC50 [12]: 25 nM

relative enzymatic activity of DNMT1 as percentages (DNMT1 [9]): 92.6 ± 2.40% | inhibition at 100 µM (DNMT1 [9]): 7.4%
SMILES: COc1cc2c(Nc3ccc(NC(=O)c4ccccc4)cc3)ncnc2cc1OCCCN1CCOCC1 [compound 14]
